In ChEMBL document CHEMBL1149928, “Stabilization of a prostaglandin tertiary allylic alcohol system by fluorine: synthesis, acid stability studies and pharmacology of a 16-fluoromethyl analog of SC-46275” (1992):

How the values were obtained:
Canis familiaris = assay: Compound was evaluated for the gastric antisecretory activity in food stimulated Pavlov pouch dogs by intrapouch administration; assay type: functional; settings: Canis lupus familiaris, Stomach
Rattus norvegicus = assay: Compound was evaluated for the diarrheal effects in adult male rats by intragastric administration; assay type: functional; settings: po

`COC(=O)CC/C=C\CC[C@H]1C(=O)C[C@@H](O)[C@@H]1/C=C/C[C@@](C)(O)/C=C/C1=CCCC1` gave an ED50 (Canis familiaris) of 0.01 µg/kg and an ED50 (Rattus norvegicus) of over 3160 µg/kg.
`COC(=O)CC/C=C\CC[C@H]1C(=O)C[C@@H](O)[C@@H]1/C=C/C[C@@](O)(/C=C/C1=CCCC1)CF` was tested, and the ED50 (Canis familiaris) was 0.05 µg/kg and the ED50 (Rattus norvegicus) was over 3160 µg/kg.
